According to patent US6864253B2, “Benzo[4,5]thieno[2,3-c]pyridine and Benzo[4,5]furo[2,3-c]pyridine Derivatives Useful as Inhibitors of Phosphodiesterase” (Orth-McNeil Pharmaceutical, Inc., priority 2000, dated 2005):
Values joined by “and” are separate entries in the source; they are usually repeats but may differ in a detail not shown here. Identical values can stand only once.

Molecular target: PDEV (Oryctolagus cuniculus, UniProt G1SX67)
Assay: Cyclic nucleotide phosphodiesterase (PDE) assay, inhibition of PDEV isolated from rabbit tissue
Assay type: biochemical
Conditions: 10 μM test compound, rabbit PDEV
Protocol: Briefly, rabbit or human tissues were homogenized in an ice-cold buffer solution containing 20 mM HEPES (pH 7.2), 0.25M sucrose, 1 mM EDTA, and 1 mM phenylmethylsulphonyl fluoride (PMSF). The homogenates were centrifuged at 100,000 g for 60 minutes at 4° C. The supernatant was filtered through […] filter and loaded on a Pharmacia Mono Q anion exchange column (1 ml bed volume) that was equilibrated with 20 mM HEPES, 1 mM EDTA and 0.5 mM PMSF. […] The fractions comprising various PDE activities were pooled separately and used in later studies.
The assays were adapted to a 96-well format. The enzyme was assayed in 5 mM MgCl2, 15 mM Tris HCl (pH 7.4), 0.5 mg/ml bovine serum albumin, 1 μM cGMP or cAMP, 0.1 μCi [^3H]-cGMP or [^3H]-cAMP, and 2-10 μl of column elution. The total volume of the assay was 100 μl. The reaction mixture was incubated at 30° C. for 30 minutes. The reaction was stopped by boiling for 1 minute and then cooled down on ice. The resulting [^3H] 5′-mononucleotides were further converted to uncharged [^3H]-nucleosides by adding 25 μl 1 mg/ml snake venom (Ophiophagus hannah) and incubating at 30° C. for 10 minute. The reaction was stopped by the addition of 1 ml Bio-Rad AG1-X2 resin slurry (1:3). All the charged nucleotides were bound by the resin and only the uncharged [^3H]-nucleosides remained in the supernatant after centrifuging. An aliquot of 200 μl was taken and counted by liquid scintillation. PDE activity was expressed as pmol cyclic nucleotide hydrolyzed/min/ml of enzyme preparation.
Inhibitor studies were carried out in assay buffer with a final concentration of 10% DMSO.

Compound | % Inh @ 10 μM (rabbit) | further results
O=C(c1ccc(-c2cccc(C(F)(F)F)c2)o1)N1CCc2c([nH]c3ccccc23)C1c1ccc([N+](=O)[O-])cc1 (stereo not drawn) [Cmpd 84] | 20% | –
O=C(O)Cn1c2c(c3ccccc31)CCN(C(=O)c1ccc(-c3cccc(C(F)(F)F)c3)o1)C2c1ccc2c(c1)OCO2 (stereo not drawn) [Cmpd 31] | 75% | –
Cc1ccc(C2c3[nH]c4ccccc4c3CCN2C(=O)c2c(-c3ccccc3)noc2C)cc1C (racemic) [Cmpd 111] | 35% | –
Cc1onc(-c2ccccc2)c1C(=O)N1CCc2c([nH]c3ccccc23)C1c1ccc([N+](=O)[O-])cc1 (racemic) [Cmpd 118] | 28% | –
Cc1cc(C)cc(C2c3[nH]c4ccccc4c3CCN2C(=O)c2c(-c3ccccc3)noc2C)c1 (racemic) [Cmpd 113] | 29% | –
O=C(c1ccc(-c2cccc([N+](=O)[O-])c2)o1)N1CCc2c([nH]c3ccccc23)C1c1ccncc1 (stereo not drawn) [Cmpd 86] | 69% | –
CCN(CC)CCn1c2c(c3ccccc31)CCN(C(=O)c1ccc(-c3cccc(C(F)(F)F)c3)o1)C2c1ccc2c(c1)OCO2 (stereo not drawn) [Cmpd 33] | – | % Inh @ 10 μM (rabbit) (10 µM): 88% and 63%
O=C(c1cnn(-c2ccccc2)c1C(F)(F)F)N1CCc2c([nH]c3ccccc23)C1c1ccc2c(c1)OCO2 (stereo not drawn) [Cmpd 123] | 56% | –
COc1ccc(C2c3[nH]c4ccccc4c3CCN2C(=O)c2cnn(-c3ccccc3)c2C(F)(F)F)cc1 (stereo not drawn) [Cmpd 130] | 45% | –
CN(C)CCCCn1c2c(c3ccccc31)CCN(C(=O)c1ccc(-c3cccc(C(F)(F)F)c3)o1)C2c1ccc2c(c1)OCO2 (stereo not drawn) [Cmpd 34] | 67% | –
O=C(c1ccc(-c2cccc([N+](=O)[O-])c2)o1)N1CCc2c([nH]c3ccccc23)C1c1ccc([N+](=O)[O-])cc1 (stereo not drawn) [Cmpd 85] | 26% | –
Cc1onc(-c2ccccc2)c1C(=O)N1CCc2c([nH]c3ccccc23)C1c1ccc2c(c1)OCO2 (racemic) [Cmpd 112] | 33% | –
COC(=O)Cn1c2c(c3ccccc31)CCN(C(=O)c1ccc(-c3cccc([N+](=O)[O-])c3)o1)C2c1ccc2c(c1)OCO2 (stereo not drawn) [Cmpd 24] | 40% | –
CN(C)CCn1c2c(c3ccccc31)CCN(c1nc3ccccc3s1)C2c1ccc2c(c1)OCO2 (stereo not drawn) [Cmpd 2] | 43% | –
CC(C)(C)c1cc(C(=O)N2CCc3c([nH]c4ccccc34)C2c2ccc(Cl)c(C(F)(F)F)c2)n(Cc2ccccc2)n1 (stereo not drawn) [Cmpd 138] | 13% | –
Cc1cc(C(=O)N2CCc3c([nH]c4ccccc34)C2c2ccc3c(c2)OCO3)nn1-c1ccccc1 (racemic) [Cmpd 106] | 70% | –
FC(F)(F)c1ccc(Cl)c(-c2ccc(CN3CCc4c([nH]c5ccccc45)C3c3ccc4c(c3)OCO4)o2)c1 (stereo not drawn) [Cmpd 11] | 53% | –
O=C(c1ccc(-c2cccc(C(F)(F)F)c2)o1)N1CCc2c([nH]c3ccccc23)C1c1ccncc1 (stereo not drawn) [Cmpd 87] | 34% | –
Nc1cccc(-c2ccc(C(=O)N3CCc4c([nH]c5ccccc45)C3c3ccc4c(c3)OCO4)o2)c1 (stereo not drawn) [Cmpd 59] | 92% | –
CN(C)c1ccc(C2c3[nH]c4ccccc4c3CCN2C(=O)c2ccc(-c3cccc([N+](=O)[O-])c3)o2)cc1 (stereo not drawn) [Cmpd 83] | 27% | –
O=C(c1ccc(C(F)(F)F)o1)N1CCc2c([nH]c3ccccc23)C1c1ccc2c(c1)OCO2 (stereo not drawn) [Cmpd 62] | 86% | –

Compound | % Inh @ 10 μM (rabbit) | further results
Cc1onc(-c2ccccc2)c1C(=O)N1CCc2c([nH]c3ccccc23)C1c1ccc(Cl)c(Cl)c1 (racemic) [Cmpd 109] | 31% | –
CCCc1c(C(=O)N2CCc3c([nH]c4ccccc34)C2c2ccc3c(c2)OCO3)cnn1-c1ccccc1 (racemic) [Cmpd 122] | 65% | –
O=C(O)Cn1c2c(c3ccccc31)CCN(C(=O)c1ccc(-c3cccc([N+](=O)[O-])c3)o1)C2c1ccc2c(c1)OCO2 (stereo not drawn) [Cmpd 30] | 93% | –
c1ccc2c3c([nH]c2c1)C(c1ccc2c(c1)CCO2)N(c1ncc(-c2ccc(OCCN4CCCC4)cc2)cn1)CC3 (stereo not drawn) [Cmpd 178] | – | % INH @ 10 μM (rabbit): 37%
O=C(O)C1Cc2c([nH]c3ccccc23)C(c2ccc3c(c2)OCO3)N1C(=O)c1ccc(-c2cccc([N+](=O)[O-])c2)o1 (stereo not drawn) [Cmpd 67] | 50% | –
COc1ccc(-c2cnc(N3CCc4c(n(CCN5CCCC5)c5ccccc45)C3c3ccc4c(c3)OCO4)nc2)cc1 (stereo not drawn) [Cmpd 148] | – | inhibition at 10 µM (read-out: % INH @ 10 μM (rabbit)): 66%
O=C(c1cnn(-c2ccc([N+](=O)[O-])cc2)c1C(F)(F)F)N1CCc2c([nH]c3ccccc23)C1c1ccc2c(c1)OCO2 (stereo not drawn) [Cmpd 125] | 54% | –
O=C(c1ccc([N+](=O)[O-])o1)N1CCc2c([nH]c3ccccc23)C1c1ccc2c(c1)OCO2 (stereo not drawn) [Cmpd 64] | 83% | –
COc1ccc(-c2cnc(N3CCc4c([nH]c5ccccc45)C3c3ccc4c(c3)OCO4)nc2)cc1 (stereo not drawn) [Cmpd 9] | 80% | –
O=C(c1ccc(-c2cccc([N+](=O)[O-])c2)o1)N1CCc2c([nH]c3ccccc23)C1c1ccc2c(c1)OC(F)(F)O2 (stereo not drawn) [Cmpd 21] | 32% | –
COc1ccc(C2c3[nH]c4ccccc4c3CCN2C(=O)c2cnn(-c3ccccc3)c2C(F)(F)F)cc1OC (racemic) [Cmpd 121] | 10% | –
O=C(c1ccc(-c2ccc([N+](=O)[O-])cc2)o1)N1CCc2c([nH]c3ccccc23)C1c1ccc2c(c1)OCO2 (stereo not drawn) [Cmpd 50] | 76% | –
CC(=O)Nc1ccc(-c2ccc(C(=O)N3CCc4c([nH]c5ccccc45)C3c3ccc4c(c3)OCO4)o2)cc1 (stereo not drawn) [Cmpd 49] | 60% | –
O=C(c1ccc(-c2cc(C(F)(F)F)ccc2Cl)o1)N1CCc2c([nH]c3ccccc23)C1c1ccc2c(c1)OCO2 (stereo not drawn) [Cmpd 57] | 76% | –
O=C(c1ccc(-c2cccc(C(F)(F)F)c2)o1)N1CCc2c([nH]c3ccccc23)C1c1ccccc1 (stereo not drawn) [Cmpd 88] | 49% | –
O=C(c1ccc(Br)o1)N1CCc2c([nH]c3ccccc23)C1c1ccc2c(c1)OCO2 (stereo not drawn) [Cmpd 63] | 78% | –
O=C(c1ccc(-c2cccc([N+](=O)[O-])c2)o1)N1CCc2c(n(C(=O)c3ccc(-c4cccc([N+](=O)[O-])c4)o3)c3ccccc23)C1c1ccc2c(c1)OC(F)(F)O2 (stereo not drawn) [Cmpd 19] | 15% | –
O=C(c1ccc(-c2ccc(Cl)cc2[N+](=O)[O-])o1)N1CCc2c([nH]c3ccccc23)C1c1ccc2c(c1)OCO2 (stereo not drawn) [Cmpd 66] | – | % Inh @ 10 μM (rabbit) (10 µM): 23%
O=C(c1ccc(-c2cccc(C(F)(F)F)c2)o1)N1CCc2c(n(CCN3CCOCC3)c3ccccc23)C1c1ccc2c(c1)OCO2 (stereo not drawn) [Cmpd 28] | 94% | –
CC(C)(C)c1cc(C(=O)N2CCc3c([nH]c4ccccc34)C2c2ccc(C#N)cc2)n(Cc2ccccc2)n1 (stereo not drawn) [Cmpd 139] | −9% | –
Cc1onc(-c2ccccc2)c1C(=O)N1CCc2c([nH]c3ccccc23)C1c1ccc(Cl)c(C(F)(F)F)c1 (racemic) [Cmpd 114] | 27% | –
